“Also recorded” adds a separate entry of the source.
Columns and labels:
Format in all cases: cell-based, human
[1] = test system: Wolman disease cells; assay: Amplex-red cholesterol assay (total cholesterol), combination therapy
From the text: (1) Amplex-red cholesterol assay. This biochemical assay (Invitrogen) uses cholesterol oxidase and a HRP-Amplex-re reporting system to measure the free cholesterol level in cells. With the addition of acid lipase to this assay, that hydrolyzes cholesterol ester to free cholesterol, the level of total cholesterol in cells including the cholesterol ester can be measured. This assay was used for detecting the total cholesterol level of in fibroblasts from patients with Wolman disease.

[2] = test system: NPC fibroblasts; assay: Microarray gene expression; set-up: HMGCR expression, Toco treat NPC / SC4MOL expression, Toco treat NPC / DHCR7 expression, Toco treat NPC / MMP3 expression, Toco treat NPC: unit not given here; conditions: 40 μM delta-tocopherol 5 days vs DMSO-treated
Protocol: (§1) Five NPC fibroblast cell lines as well as five normal fibroblast cell lines were treated with 40 μM delta-tocopherol for 5 days with a medium change and sully of fresh compound on 3rd day. The total RNAs was prepared as the standard method described previously ( ). The microarray gene expression experiment was carried out in a core microarray facility at NHGRI with a set of AAAAA chips (Affymetrix). Partek Genomics Software Suite (Copyright, Partek Inc.) was used to perform analysis of microarray data. Affymetrix cell files were loaded into the software using the RMA algorithm, which involved background correction, quantile normalization, log-2 transformation, and median polish summarization. PCA and hierarchical clustering identified one sample as an outlier. This sample (sample number 12) was not considered for further analysis. ANOVA was performed to identify the differentially expressed genes for three comparisons: 1) NPC_DMSO vs WT_DMSO 2) NPC tocopherol-treated vs NPC_DMSO-treated and 3) WT_tocopherol-treated vs WT_DMSO-treated.

[3] = test system: neuron-like NPCD cells; assay: Filipin staining co-stained with neuronal beta III tubulin; conditions: neuron-like cells differentiated from NPCD patient MSC
Protocol: The adipose mesenchymal stem cells (HMSC.AD-100, HMSC-NPC22 and HMSC-NPC23) were isolated from two NPC patients as well as one heath individual and provided by Celleng-tech (Coralville, Iowa). These cells were maintained in MSC expansion media (Celleng-tech, cat# HMSC.E.Media-450) supplemented with 10% FBS 100 unit/ml penicillin and 100 μg/ml streptomycin at 5% CO2, 37° C. For neural differentiation, cells were initially plated at 30% confluency (˜2500 cells/cm^2) using MSC expansion media. After 24 hours, MSC expansion media were withdrew. Cells were washed twice with Dulbecco's phosphate Buffer saline (Invitrogen) and incubated with neural differentiation media (Celleng-tech, cat# NEU.D.Media-450) supplemented with 10% FBS, 100 unit/ml penicillin and 100 μg/ml streptomycin at 5% CO2, 37° C. for additional 3 days.
MSC cells were seeded on coverslips on day 0 in MSC expansion medium. On day 1, cells were washed twice with warm PBS buffer and then incubated with MSC neuronal differentiation medium. On day 4, media were replaced with fresh neuronal differentiation medium. On day 6, cells were fixed with 3.2% paraformaldehyde in HBSS for 15 min. Immunocytochemistry for neuronal beta III tubulin and unesterified cholesterol (filipin staining) was performed as described. The coverslips were examined y a XXX microscope. […]

[4] = test system: Niemann Pick type A disease fibroblasts; assay: Lysotracker staining assay
[5] = test system: Tay-Sachs disease fibroblasts; assay: Lysotracker staining assay
[6] = test system: WT fibroblasts; assay: Microarray gene expression; set-up: ACACA expression, Toco treat WT / HMGCR expression, Toco treat WT / SREBF2 expression, Toco treat WT / LDLR expression, Toco treat WT: unit not given here; conditions: 40 μM delta-tocopherol 5 days vs DMSO-treated
Protocol: as §1

[7] = test system: Wolman disease fibroblasts; assay: Lysotracker staining assay
[8] = test system: NPCD fibroblasts; assay: Filipin cholesterol staining assay; conditions: NPCD patient cells
Protocol: Filipin dye staining was used to determine the level of free cholesterol accumulation in cells (27, 28). Cells were seeded at 1000 cells/well in 100 μl medium in the black/clear bottom, tissue culture treated 96-well plates (Greiner Bio-One, Monroe, N.C.) for culture overnight or in a designated time. The cells were washed twice with the HBBS buffer and fixed with 100 μl/well 3.2% formaldehyde at room temperature for 30 minutes. After three times of plate wash with PBS buffer, cells were stained with 50 μg/ml filipin, which was freshly-dissolved in DMSO at 10 mg/ml and then diluted in PBS buffer. Samples were then washed twice with PBS buffer and stored in 4° C. On the day of imaging, cells were stained with 2 μM of CellMask Red (Invitrogen, H32711) in PBS at room temperature for 1 h. Samples were viewed and photographed using a Nikon Eclipse Ti microscope with a 20× objective equipped with CCD camera. DAPI filter and TRITC filter were used to visualize filipin and CellMask Red, respectively. The images were processed by Adobe Photoshop.

## Cc1cc(O)cc2c1O[C@](C)(CCC[C@H](C)CCC[C@H](C)CCCC(C)C)CC2 [δ-tocopherol]
[1]; 40 μM delta-tocopherol or 80 μM alpha-tocopherol alone
  cholesterol level, sole therapy: cholesterol reduction effect
[1]; delta-tocopherol 10 μM combined with 10 μM MBCD
  cholesterol level, combination: cholesterol reduction effect
[1]; sub-effective concentrations combined
  interaction of delta-tocopherol and cyclodextrin: synergetic or additive effect
[2]
  ABCA1 expression, Toco treat NPC: significantly reduced; also recorded: decreased expression
  ACACA expression, Toco treat NPC: −1.5
  DHCR7 expression, Toco treat NPC: −1.7
  FADS2 expression, Toco treat NPC: −2.5
  FRRS1 expression, Toco treat NPC: 1.1
  HMGCR expression, Toco treat NPC: decreased
  HMGCS1 expression, Toco treat NPC: −1.9
  INSIG1 expression, Toco treat NPC: −1.8
  LDLR expression, Toco treat NPC: significantly reduced; also recorded: decreased expression
  MMP1 expression, Toco treat NPC: 2.7
  MMP3 expression, Toco treat NPC: 1.7
  NOX4 expression, Toco treat NPC: −1.1
  SC4MOL expression, Toco treat NPC: −1.4
  SCD expression, Toco treat NPC: decreased
  SREBF1 expression, Toco treat NPC: −1.4
  SREBF2 expression, Toco treat NPC: −1.6
[2]; listed as tocopherol
  ABCA1 expression, Toco treat NPC: −2.0
  HMGCR expression, Toco treat NPC: −1.7
  LDLR expression, Toco treat NPC: −2.0
  SCD expression, Toco treat NPC: −3.9
[3]
  cholesterol accumulation: significant reduction
[4]
  size of enlarged lysosomes: significantly reduced
[5]
  size of enlarged lysosomes: significantly reduced
[6]
  ABCA1 expression, Toco treat WT: −1.4
  ACACA expression, Toco treat WT: −1.5
  DHCR7 expression, Toco treat WT: −1.6
  FADS2 expression, Toco treat WT: −2.0
  FRRS1 expression, Toco treat WT: −1.1
  HMGCR expression, Toco treat WT: −1.5
  HMGCS1 expression, Toco treat WT: −1.6
  INSIG1 expression, Toco treat WT: −1.6
  LDLR expression, Toco treat WT: −2.0
  MMP1 expression, Toco treat WT: 5.0
  MMP3 expression, Toco treat WT: 2.0
  NOX4 expression, Toco treat WT: −1.7
  SC4MOL expression, Toco treat WT: −1.7
  SCD expression, Toco treat WT: −3.5
  SREBF1 expression, Toco treat WT: −1.2
  SREBF2 expression, Toco treat WT: −1.6
[7]
  size of enlarged lysosomes: significantly reduced
[8]
  free cholesterol accumulation (filipin staining): significantly reduced
